# Legend:
# LN-229 xenograft = test: Subcutaneous xenograft tumor growth; format: in vivo, athymic mice; details: LN-229 s.c. xenograft, day 20; TMZ 5 mg/kg Day1-5, p28 10 mg/kg 3 times weekly, i.p.; N=5/group; P<0.001
# Description: (§1) All animal work was performed under a protocol approved by the University of Illinois at Chicago. Athymic mice at 4-5 weeks old were purchased from The Jackson Laboratory. For orthotopic xenografts, GBM cell lines (LN-229 and U-118) were injected into the cerebral cortex. Following anesthesia, cancer cell suspensions at 5x10^5 cells/3μl were stereotactically injected (2 mm lateral to the sagittal suture, 1 mm anterior to the coronal suture, 3 mm depth) using a Koft model 963 stereotactic apparatus with a 31-gauge Hamilton syringe. After injection, the injection site was covered with sterile bone wax. Tumor growth was monitored by MR imaging. For tumor growth study, GBM cell lines (LN-229 and U-118) at 1.0x10^6 cell/mouse were subcutaneously (s.c.) implanted into the right flank of athymic mice ([22]). When tumors reached 3 mm in diameter, animals were randomized into several groups; PBS (control), TMZ 5 mg/kg (25.7 μmol/kg) 5 injections on Day1-5, and p28 10 mg/kg (3.4 μmol/kg) 3 times weekly, i.p. Body weight was determined 3 times weekly. The tumor volume in each animal was assessed by calipers and calculated 3 times weekly.
# (§2) Data processing and statistical analysis were performed using GraphPad Prism. ANOVA test was performed for tumor growth analysis, and P<0.05 was considered statistically significant.
# U-118 xenograft = test: Subcutaneous xenograft tumor growth; format: in vivo, athymic mice; details: U-118 s.c. xenograft, day 20; TMZ 5 mg/kg, p28 10 mg/kg i.p.; N=7/group
# Description: as §1, §2
# [1] = Body weight in xenograft study; format: in vivo, athymic mice; details: U-118 xenograft mice, over four weeks of i.p. treatment
# Description: as §1
# U-118 = test: Cytotoxicity, MTT assay; format: cell-based, human; details: U-118, 1 mM, 72 hr, N=3, P<0.001
# Description: (§3) Cytotoxicity was evaluated by the MTT assay as described previously ([21], [22]). Cells seeded in 96-well plates were exposed to TMZ at various concentrations for 72 hr (N=3 in each concentration). Curves were fitted using GraphPad PRISM (version 5.0) as a function of a nonlinear one-phase decay (maximum iterations: 1,000, Cl: 95%).
# LN-229 = test: Cytotoxicity, MTT assay; format: cell-based, human; details: LN-229, 1 mM, 72 hr, N=3, P<0.001
# Description: as §3
compound,measurement,setting,value
"Cn1nnc2c(C(N)=O)ncn2c1=O [TMZ, temozolomide]",reduction in tumor growth compared to the PBS control group,LN-229 xenograft,42.4%
same,reduction of tumor growth,U-118 xenograft,24.5%
same,body weight,[1],29.0 ± 0.8 g
same,"reduction (antiproliferative effect, MTT)",U-118,36.6%
same,"reduction (antiproliferative effect, MTT)",LN-229,53.2%

# — article PMC9353713, “Tumor-targeting cell-penetrating peptide, p28, for glioblastoma imaging and therapy” (Frontiers in Oncology, 2022)
